Test results published in US20100310471A1, “ANTIOXIDANT AND PARAMAGNETIC HEPARIN-NITROXIDE DERIVATIVES” (Johannes Gutenberg-Universität Mainz, priority 2007, published 2010).

Assays:
[1] = EPR spectra of H—NRs in aqueous solution (line width); assay type: physicochemical; settings: 0.1 mM aqueous solutions, pH 7.4, room temperature, X-band
Experimental: FIG. 2. Spectra EPR of TEMPO and different H—NRs (0.1 mM aqueous solutions, pH 7.4). EPR spectra were recorded at room temperature using an X-band radiospectrometer MS200 (Magnettech GmbH, Berlin). Instrument parameters were 10 mW microwave power, 0.1 mT amplitude modulation, 100 kHz modulation frequency, sweep field 11 mT and 120 s sweep time.
The line widths of the EPR signals of all H—NRs were slightly broader in comparison to the EPR signal of TEMPOL, indicating slight decrease in the mobility of nitroxyl groups upon binding to heparin as well as spin-spin interactions between them. Thus, ΔH (in gauss) were 1.8, 2.1, 2.5, 2.0 and 2.5 for TEMPOL, H—NR-1, H—NR-2, H—NR-3 and H—NR-4, respectively. The line width the signal is critical for the in vivo EPR imaging. A narrower signal provides for better resolution, and is therefore preferred. As a result, the H—NR-3, in which nitroxide is bound to heparin via a linker, provides for a higher spectral mobility, and is thus preferred for EPR imaging.

[2] = known value; cited from earlier work
[3] = system: heparin-binding sites of the vascular wall (rat aorta); assay: Binding to rat aortic rings, detected by EPR (X-band) after wash with Krebs; settings: for replacement of heparin-nitroxide from heparin-binding sites of rat aorta by dextran: 100 μM H—NR-2, 1 hr, 37° C., with 1 mM or 10 mM dextran (up to 100 molar excess)
Experimental: Therefore, the heparin-nitroxide derivative of the present invention is able to specifically bind with high affinity to specific sites in biological vessels.
FIG. 4. Spectra EPR, (A) 10 μM H—NR-1 solution; (B) rat aortic ring (3 mm long) pre-incubated with 10 μM H—NR-1 for 1 hour and then washed 3 times with Krebs buffer; (C) rat aortic ring (3 mm long) pre-incubated with 10 μM H—NR-1 in the presence of heparin (liquemin, 30 units/ml) for 1 hour and then washed 3 times with Krebs buffer; (D) 5 μM 4-hydroxy-TEMPO; (E) rat aortic ring (3 mm long) pre-incubated with 10 μM 4-hydroxy-TEMPO for 1 hour and then washed 3 times with Krebs buffer. EPR spectra were recorded at room temperature using an X-band radiospectrometer MS200 (Magnettech GmbH, Berlin). Instrument parameters were 10 mW microwave power, 0.1 mT amplitude modulation, 100 kHz modulation frequency, sweep field 5 mT and 60 s sweep time. Representative spectra of 3 experiments are shown.
FIG. 5. The binding of H—NR-1 to rat aorta as a function of time and concentration. Rat aortic rings (3 mm long) were incubated (37° C.) with 10 μM or 100 μM H—NR-1 either for 0.5 hr, 1 hr, 1.5 hr, 2 hr, 3 hr and then washed out with Krebs solution. To estimate the amount of H—NR-1 bound to tissue, aortic rings were placed in capillaries, and spectra EPR(X-band) were recorded.
FIG. 6. […] Rat aortic rings (3 mm long) with or without endothelium were incubated (37° C.) with 10 μM H—NR-1 for 1 hr and then washed out with Krebs solution. To estimate the amount of H—NR-1 bound to tissue, aortic rings were placed in capillaries and spectra EPR(X-band) were recorded at room temperature.
FIG. 12. […] Rat aortic rings (3 mm long) were incubated (37° C.) with 100 μM H—NR-2 for 1 hr and then washed out with Krebs solution. Rings were incubated with H—NR-2 along (A) or in the presence of 1 mM dextran (B), or in the presence of 10 mM dextran (C). To estimate the amount of H—NR-2 bound to tissue, aortic rings were placed in capillaries, and spectra EPR(X-band) were recorded.

CC1(C)CC(O)CC(C)(C)N1[O] [TEMPOL, 4-hydroxy-2,2,6,6-tetramethylpiperidine-N-oxyl]
ΔH, line width of the EPR signal [1]: 1.8 gauss
half-life in vivo [2]: only a few minutes
binding to rat aorta (EPR signal in tissue after wash) ([3]; aortic ring pre-incubated with 10 μM for 1 hour, washed 3 times with Krebs buffer): did not result in the appearance of the EPR signal in tissue

dextran
replacement of heparin-nitroxide from heparin-binding sites of rat aorta by dextran [3]: unable to replace heparin-nitroxide from the vascular tissue
replacement of heparin-nitroxide from heparin-binding sites of rat aorta by dextran ([3]; listed as Dextran): unable to replace Heparin-nitroxide
